Test results: article PMC9796130, “The First Structure of Human MTHFD2L and Its Implications for the Development of Isoform‐Selective Inhibitors” (Chemmedchem, 2022)

Target: T1, MTHFD2L (Homo sapiens, UniProt Q9H903)
T1 construct: amino acids 50–347, His-tagged
T1 sequence (Q9H903 50-347): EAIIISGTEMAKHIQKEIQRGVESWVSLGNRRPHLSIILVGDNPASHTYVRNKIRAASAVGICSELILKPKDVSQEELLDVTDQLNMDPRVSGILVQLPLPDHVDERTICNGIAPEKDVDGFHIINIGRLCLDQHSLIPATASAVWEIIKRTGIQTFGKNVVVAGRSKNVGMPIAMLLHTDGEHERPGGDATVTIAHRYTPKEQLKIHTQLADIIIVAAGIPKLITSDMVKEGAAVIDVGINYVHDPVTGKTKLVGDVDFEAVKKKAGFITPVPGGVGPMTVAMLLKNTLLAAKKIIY
Assay: X-ray co-crystal structure ([…] Å); IC50 on purified enzyme by NAD(P)H-Glo luminescence assay
Format: biochemical

IC50: 174 nM
SMILES: Nc1nc(N)c(NC(=O)Nc2ccc(C(=O)NC(CCC(=O)O)C(=O)O)cc2)c(O)n1 (stereo not shown) [TH7299]
